# Test results taken from ChEMBL document CHEMBL5385963, “Enhanced inhibitory activity of compounds containing purine scaffolds compared to protein kinase CK2α considering crystalline water” (RSC Med Chem, 2024).
# pIC50: −log10 of the molar value.
# Biological target: Casein kinase II subunit alpha (Homo sapiens, UniProt P68400)
# Experiment: Inhibition of N-terminal GST-fusion protein tagged full length human CK2alpha1 (1 to 391 residues) expressed in baculovirus expression system co-expressing human His-tagged CK2beta using CK2tide as substrate incubated for 1 hrs in presence of ATP by off-chip mobility shift assay
# Casein kinase II subunit alpha, sequence (P68400 whole entry, the tested form may be a part): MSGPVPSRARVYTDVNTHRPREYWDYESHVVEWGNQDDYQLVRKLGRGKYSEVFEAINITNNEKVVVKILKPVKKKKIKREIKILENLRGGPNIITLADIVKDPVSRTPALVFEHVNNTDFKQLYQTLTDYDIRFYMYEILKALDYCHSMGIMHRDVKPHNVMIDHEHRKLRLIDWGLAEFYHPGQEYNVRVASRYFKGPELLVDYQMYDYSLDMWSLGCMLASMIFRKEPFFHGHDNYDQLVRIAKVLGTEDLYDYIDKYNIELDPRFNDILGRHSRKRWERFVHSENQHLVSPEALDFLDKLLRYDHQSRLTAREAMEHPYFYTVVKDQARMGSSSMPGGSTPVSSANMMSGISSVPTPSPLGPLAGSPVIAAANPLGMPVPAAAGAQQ
row,SMILES,pIC50
1,NC(=O)c1nc(-c2cccc(C(=O)O)c2)nc2c1[nH]c(=O)n2-c1ccc(Cl)cc1,5.27
2,NC(=O)c1nc(-c2cccc(C(=O)O)c2)nc2c1[nH]c(=O)n2-c1ccc([N+](=O)[O-])cc1,6.42
3,COc1cccc(-n2c(=O)[nH]c3c(C(N)=O)nc(-c4ccc(C(=O)O)cc4)nc32)c1,4.74
4,NC(=O)c1nc(CCCC(=O)O)nc2c1[nH]c(=O)n2-c1ccccc1,< 4.52
5,NC(=O)c1nc(-c2ccc(C(=O)O)cc2)nc2c1[nH]c(=O)n2-c1ccc(F)cc1,< 4.52
6,COc1ccc(-n2c(=O)[nH]c3c(C(N)=O)nc(-c4cccc(C(=O)O)c4)nc32)cc1,5.59
7,NC(=O)c1nc(CCC(=O)O)nc2c1[nH]c(=O)n2-c1ccccc1,4.82
8,NC(=O)c1nc(-c2ccc(C(=O)O)cc2)nc2c1[nH]c(=O)n2-c1ccc([N+](=O)[O-])cc1,< 4.52
9,N#Cc1ccc(-n2c(=O)[nH]c3c(C(N)=O)nc(-c4ccc(C(=O)O)cc4)nc32)cc1,< 4.52

# Continued, values first:
row,pIC50,SMILES
1,< 4.52,NC(=O)c1nc(CC(=O)O)nc2c1[nH]c(=O)n2-c1ccccc1
2,4.96,Cc1ccc(-n2c(=O)[nH]c3c(C(N)=O)nc(-c4ccc(C(=O)O)cc4)nc32)cc1
3,6.21,Cc1ccc(-n2c(=O)[nH]c3c(C(N)=O)nc(-c4cccc(C(=O)O)c4)nc32)cc1
4,5.03,COc1ccc(-n2c(=O)[nH]c3c(C(N)=O)nc(-c4ccc(C(=O)O)cc4)nc32)cc1
5,5.37,CN(C)c1ccc(-n2c(=O)[nH]c3c(C(N)=O)nc(-c4ccc(C(=O)O)cc4)nc32)cc1
6,< 4.52,NC(=O)c1nc(-c2ccc(C(=O)O)cc2)nc2c1[nH]c(=O)n2-c1ccc(Cl)cc1
7,5.72,COc1cccc(-n2c(=O)[nH]c3c(C(N)=O)nc(-c4cccc(C(=O)O)c4)nc32)c1
8,< 4.52,NC(=O)c1nc(C(=O)O)nc2c1[nH]c(=O)n2-c1ccccc1
9,6.74,NC(=O)c1nc(-c2cccc(C(=O)O)c2)nc2c1[nH]c(=O)n2-c1ccc(F)cc1
10,4.85,NC(=O)c1nc(-c2ccc(C(=O)O)cc2)nc2c1[nH]c(=O)n2-c1ccccc1
11,6.00,NC(=O)c1nc(/C=C/C(=O)O)nc2c1[nH]c(=O)n2-c1ccccc1
12,6.40,N#Cc1ccc(-n2c(=O)[nH]c3c(C(N)=O)nc(-c4cccc(C(=O)O)c4)nc32)cc1
13,6.00,NC(=O)c1nc(-c2cccc(C(=O)O)c2)nc2c1[nH]c(=O)n2-c1ccccc1
